The results in this text go back to paper PMC11647725, “Discovery of 4-(5-Membered)Heteroarylether-6-methylpicolinamide Negative Allosteric Modulators of Metabotropic Glutamate Receptor Subtype 5” (ACS Medicinal Chemistry Letters, 2024).

Data set [1] addresses Interleukin IL-1 R1 (Homo sapiens, UniProt P14778). As to the kind of experiment: Lead Profiling Screen, Eurofins Panlabs. The format is binding. Particulars: Interleukin IL-1 R1, hum, read-out: % inh at 10 μM.
For data set [2], the target named is T1, human mGlu4 (Homo sapiens, UniProt Q14833).
T1 construct: expressed in transfected cells
T1 sequence (Q14833 33-912): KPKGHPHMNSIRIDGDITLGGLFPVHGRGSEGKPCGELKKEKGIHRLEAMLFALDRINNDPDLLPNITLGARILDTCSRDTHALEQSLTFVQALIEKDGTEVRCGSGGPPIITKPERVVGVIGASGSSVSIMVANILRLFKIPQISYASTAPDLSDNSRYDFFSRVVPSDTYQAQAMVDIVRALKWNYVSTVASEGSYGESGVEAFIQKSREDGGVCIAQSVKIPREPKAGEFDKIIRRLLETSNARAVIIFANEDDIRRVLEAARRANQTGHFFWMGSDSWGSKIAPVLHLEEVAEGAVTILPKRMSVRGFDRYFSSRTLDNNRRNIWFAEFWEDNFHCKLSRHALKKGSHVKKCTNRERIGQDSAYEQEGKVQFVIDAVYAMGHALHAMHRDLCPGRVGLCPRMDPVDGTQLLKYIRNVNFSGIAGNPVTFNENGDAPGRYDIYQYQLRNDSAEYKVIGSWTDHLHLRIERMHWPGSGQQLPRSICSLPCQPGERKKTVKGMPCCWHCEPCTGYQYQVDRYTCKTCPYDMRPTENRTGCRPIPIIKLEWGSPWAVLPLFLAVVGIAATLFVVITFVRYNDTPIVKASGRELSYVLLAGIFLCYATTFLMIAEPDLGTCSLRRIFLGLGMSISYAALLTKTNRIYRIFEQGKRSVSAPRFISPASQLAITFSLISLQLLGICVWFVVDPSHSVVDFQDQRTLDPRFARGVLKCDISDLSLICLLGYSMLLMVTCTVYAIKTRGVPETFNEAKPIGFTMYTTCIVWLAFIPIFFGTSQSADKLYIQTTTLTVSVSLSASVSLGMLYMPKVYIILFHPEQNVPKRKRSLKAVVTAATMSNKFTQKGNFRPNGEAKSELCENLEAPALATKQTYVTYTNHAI
Nature of the data set: mGlu selectivity, calcium mobilization assay. The format is cell-based. The protocol: (§1) the presence of 5% CO2, the dye solutions were removed and replaced with assay buffer using a microplate washer, leaving 20 μL of assay buffer in the cell plate. The compound, agonist, and cell plates were placed inside the Functional Drug Screening System (FDSS 7000 or uCell, Hamamatsu, Japan) to measure the calcium flux. Assays were run at 37 °C. A triple add protocol was used to measure Ca kinetics. Briefly, after establishment of a fluorescence baseline for 2 seconds (excitation, 480 nm; emission, 530 nm), 20 µL of test compound was added to the cells and the response was measured for 140 seconds. This was followed by the addition of 10 µL (5X) of an EC20 concentration of Glu agonist, and the response of the cells was measured for 125 seconds. A third addition occurred by adding 12 uL (5X) of an EC80 concentration of Glu agonist and the response of the cells was measured for 90 seconds. […] Calcium fluorescence was recorded as fold over basal fluorescence and raw data were normalized to the maximal response to Glu agonist (ECMax). Compound-evoked decreases in calcium response in the presence of Glu EC80 agonist were determined as inhibition activity, and potency (IC50) and maximum inhibition responses (% GluMin) of compounds were determined using a four-parameter logistical equation using GraphPad Prism (La Jolla, CA) or the Dotmatics software platform (Woburn, MA) : […]
On the technique in general: Calcium flux is commonly read through the fluorescence of an indicator in the cells.

Data set [3] addresses T2, human mGlu1 (Homo sapiens, UniProt Q13255).
T2 construct: expressed in transfected cells; host or cells: TREx-293, tetracycline-inducible
As to the kind of experiment: mGlu selectivity, calcium mobilization assay. It counts as cell-based. The protocol:
as §1

For data set [4], the target named is T3, CYP 2D6 (Homo sapiens, UniProt P10635).
T3 construct: from tissue; host or cells: pooled human liver microsomes (per the earlier reading)
T3 sequence (P10635 whole entry): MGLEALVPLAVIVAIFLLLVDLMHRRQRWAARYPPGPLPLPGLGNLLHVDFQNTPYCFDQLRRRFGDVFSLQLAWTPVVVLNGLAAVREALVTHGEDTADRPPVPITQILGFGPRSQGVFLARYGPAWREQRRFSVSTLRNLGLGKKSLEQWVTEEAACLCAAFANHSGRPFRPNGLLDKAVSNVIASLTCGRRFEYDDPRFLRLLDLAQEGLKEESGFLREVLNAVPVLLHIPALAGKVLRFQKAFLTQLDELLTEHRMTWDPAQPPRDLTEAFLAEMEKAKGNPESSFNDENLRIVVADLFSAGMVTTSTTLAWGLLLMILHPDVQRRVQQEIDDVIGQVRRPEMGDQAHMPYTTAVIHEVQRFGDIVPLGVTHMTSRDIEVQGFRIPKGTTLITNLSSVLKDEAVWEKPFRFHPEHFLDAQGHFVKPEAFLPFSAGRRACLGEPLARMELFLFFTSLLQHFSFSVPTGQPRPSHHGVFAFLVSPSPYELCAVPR
Nature of the data set: P450 inhibition in pooled human liver microsomes. Particulars: pooled HLM, NADPH, CYP-specific probe substrates; listed as VU6043653. The format is in vitro ADME. A general note: Microsomes from liver hold many membrane-bound enzymes, among them those of drug oxidation.

The nature of data set [5]: Binding in plasma from human (equilibrium dialysis). It counts as in vitro ADME. Particulars: human, plasma, read-out: Human fu,plasma. The protocol: Binding in plasma from rat and human.
Determination of compounds’ fraction unbound (f u) in plasma from rat and human was conducted in vitro via equilibrium dialysis using HTDialysis membrane plates. Dialysis membranes (four paired strips per HTD assay) were hydrated as described by the manufacturer and inserted into the HTD plate, which was assembled and prepared for sample addition by the dispensing of blank buffer (DPBS, 100 µL/well) into the ‘top half’ of each membrane-split well. Each compound was diluted into plasma from each species (5 µM final concentration), which was aliquoted in triplicate to the ‘bottom half’ of the prepared HTD plate wells. The HTD plate was sealed and incubated for 6 hours at 37 °C. Following incubation, each well (both top and bottom halves) were transferred (20 µL) to the corresponding wells of a 96-shallow-well (V-bottom) plate. The daughter plates were then matrix-matched (buffer side wells received equal volume of plasma, and plasma side wells received equal volume of buffer), and extraction solution (120 µL; acetonitrile containing 50 nM carbamazepine as IS) was added to all wells of both daughter plates to precipitate protein and extract test article. The plates were then sealed and centrifuged (3500 rcf) for 10 minutes at ambient temperature. Supernatant (60 µL) from each well of the daughter plates was then transferred to the corresponding wells of new daughter plates (96-shallow-well, V bottom) containing water (Milli-Q, 60 µL/well), and the plates were sealed in preparation for LC-MS/MS analysis (see below). fu was calculated as (analyte to IS MS peak area ratio from Trans-buffer side) / (analyte to IS MS peak area ratio from Cis-plasma side). Mean values for each species were calculated from 3 replicates. […]
Mean values for each species were calculated from 3 replicates. […]
After 5 minutes (pre-incubation), reactions were initiated by addition of nicotinamide adenine dinucleotide phosphate (NADPH, 1 mM final concentration). At selected time intervals (0, 3, 7, 15, 25, and 45 minutes) post-addition of NADPH, aliquots (50 µL) were taken and placed into a 96-shallow-well plate containing ice cold acetonitrile (150 µL) with carbamazepine (IS, 50 nM). The plates were then centrifuged (3000 rcf at 4 °C) for 10 minutes. The supernatants were transferred to a new 96-shallow-well daughter plate and diluted (1:1 v/v) with water (Milli-Q filtered). The plates were then sealed in preparation for LC-MS/MS analysis (see below).

pIC50: −log10 of the molar value.

Interleukin IL-1 R1, sequence (P14778 18-569): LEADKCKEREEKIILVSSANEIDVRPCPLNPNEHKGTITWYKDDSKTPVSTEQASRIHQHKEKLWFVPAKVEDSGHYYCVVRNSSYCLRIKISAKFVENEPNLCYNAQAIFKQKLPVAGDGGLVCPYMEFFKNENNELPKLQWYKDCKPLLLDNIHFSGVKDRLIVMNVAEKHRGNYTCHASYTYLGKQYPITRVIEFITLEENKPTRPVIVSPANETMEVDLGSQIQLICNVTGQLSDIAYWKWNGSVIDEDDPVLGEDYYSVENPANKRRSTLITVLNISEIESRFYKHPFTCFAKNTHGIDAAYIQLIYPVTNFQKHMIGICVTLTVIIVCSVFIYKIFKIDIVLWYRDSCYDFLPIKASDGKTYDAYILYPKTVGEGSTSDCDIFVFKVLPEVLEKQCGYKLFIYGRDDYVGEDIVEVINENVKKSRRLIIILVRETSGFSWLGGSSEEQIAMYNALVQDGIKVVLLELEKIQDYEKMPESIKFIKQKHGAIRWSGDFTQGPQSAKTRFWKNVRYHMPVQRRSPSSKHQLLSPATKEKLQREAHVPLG
T2 sequence (Q13255 19-1194): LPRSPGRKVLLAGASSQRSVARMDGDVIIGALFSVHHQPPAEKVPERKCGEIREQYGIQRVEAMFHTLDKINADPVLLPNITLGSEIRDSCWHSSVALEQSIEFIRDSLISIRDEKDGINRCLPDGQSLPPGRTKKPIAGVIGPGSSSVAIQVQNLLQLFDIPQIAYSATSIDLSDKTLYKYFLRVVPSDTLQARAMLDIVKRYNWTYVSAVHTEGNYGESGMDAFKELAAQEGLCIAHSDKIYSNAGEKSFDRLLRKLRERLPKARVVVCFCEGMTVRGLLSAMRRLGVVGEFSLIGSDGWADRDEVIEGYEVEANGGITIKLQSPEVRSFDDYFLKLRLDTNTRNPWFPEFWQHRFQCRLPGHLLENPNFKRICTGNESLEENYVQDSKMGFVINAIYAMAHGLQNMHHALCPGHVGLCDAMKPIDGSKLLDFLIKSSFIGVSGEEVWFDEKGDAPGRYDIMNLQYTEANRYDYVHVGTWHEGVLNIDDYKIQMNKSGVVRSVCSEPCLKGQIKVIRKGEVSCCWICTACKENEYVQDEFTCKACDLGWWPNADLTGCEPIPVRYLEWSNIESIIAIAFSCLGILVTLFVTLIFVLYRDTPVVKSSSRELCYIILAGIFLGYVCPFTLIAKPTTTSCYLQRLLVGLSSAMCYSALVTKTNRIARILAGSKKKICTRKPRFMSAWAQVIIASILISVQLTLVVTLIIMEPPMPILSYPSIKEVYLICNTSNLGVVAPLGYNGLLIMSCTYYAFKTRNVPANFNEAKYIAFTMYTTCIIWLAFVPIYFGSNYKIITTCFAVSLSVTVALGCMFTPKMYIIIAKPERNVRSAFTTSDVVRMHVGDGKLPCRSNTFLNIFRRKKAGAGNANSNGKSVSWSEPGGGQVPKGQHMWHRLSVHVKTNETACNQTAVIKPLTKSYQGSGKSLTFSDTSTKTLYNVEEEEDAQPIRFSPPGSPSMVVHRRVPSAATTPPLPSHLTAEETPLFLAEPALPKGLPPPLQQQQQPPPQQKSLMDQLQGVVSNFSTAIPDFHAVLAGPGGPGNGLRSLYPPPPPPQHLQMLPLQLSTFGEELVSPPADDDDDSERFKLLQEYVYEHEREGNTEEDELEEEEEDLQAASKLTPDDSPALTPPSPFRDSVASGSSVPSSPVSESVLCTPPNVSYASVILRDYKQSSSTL

For the compound `Cc1cc(Oc2cnn(C)c2)cc(C(=O)Nc2ccc(F)cn2)n1` [22iA], the inhibition at 10 µM in data set [1] was -7%. The “IC50, human mGlu4” value in data set [2] was “inactive”. The “IC50, human mGlu1” value in data set [3] was “inactive”. Further, in data set [4], the pIC50 (commonly the IC50 on a negative log10 scale, so that one unit is a factor of ten) was not above 4.52. The fraction unbound at 6 h, 5 µM in data set [5] worked out at 0.059.
